Laboratory results taken from patent US11332470B2, “CXCR4 inhibitors and uses thereof” (X4 Pharmaceuticals, Inc., priority 2016, dated 2022).

Assays:
in vitro = conditions: human, Caco-2, pH 7.4
Experimental: The goal of this assay was to evaluate the intestinal absorption potential of drug candidates using Caco-2 cell lines.
1. Prewarm Prewarm HBSS Buffer in 37° C. water bath
2. Sonicate Take compounds from −20° C., sonicate for a few minutes (no less than 1 minute)
• Donor solution buffer: For A-to-B Direction: HBSS buffer with 0.3% DMSO and 5 μM LY: add 150 μL DMSO and 50 μL LY (5 mM) into 50 ml HBSS buffer (pH 7.4). HBSS buffer with 0.1% DMSO and 5 μM LY: add 50 μL DMSO and 50 μL LY (5 mM) into 50 mL HBSS buffer (pH 7.4). For B-to-A Direction: HBSS buffer with 0.3% DMSO: add 150 μL DMSO into 50 ml HBSS buffer (pH 7.4). HBSS buffer with 0.1% DMSO: add 50 μL DMSO into 50 ml HBSS buffer (pH 7.4). Receiver Solution Buffer: For A-to-B Direction: Prepare HBSS buffer with 0.4% DMSO: add 200 μL DMSO into 50 ml HBSS buffer (pH 7.4). For B-to-A Direction: Prepare HBSS buffer with 0.4% DMSO and 5 μM LY: add 200 μL DMSO and 50 μL LY (5 mM) into 50 ml HBSS buffer (pH 7.4).
4. Measure TEER Take cell culture plate out of incubator, wash the cell monolayers with HBSS buffer, and then measure TEER values at Rm temperature. 5. Centrifuge Centrifuge the compound solution (from step 3) at 4000 rpm for 5 min before loading to donor chambers. 6. Dosing Add solution based on the volumes listed in the following table (make sure to take extra 100 μL of donor sample for TO as Backup).
7. Apical LYT0 samples To determine LY concentration in the apical chamber, take 100 μL sample from apical chambers into an opaque plate for LYT0. 8. Prewarm Prewarm apical and basolateral plates at 37° C. for about 5 min, then begin transport by placing the apical plate onto basolateral plate. 9. Incubation Keep the plates in incubator at 37° C. for 90 min. 10.
Prepare Working Solution in MeOH/H2O (1:1)
• Prepare 1×solution: 3 μL (20×)+57 μL of 0.4% DMSO HBSS+60 μL ACN with IS (Osalmid or Imipramine)−120 μL (1×) 11. Transport termination Separate the apical plate from the basolateral plate after 90-min incubation. 12. Measure LY Take 100 μL samples from basolateral plate to an opaque plate as LYT90. 13. Measure LY concentrations for LYT0 and LYT90 by Fluorometer (at excitation of 485 nm/emission of 535 nm). 14.
Study details: Test concentration 10 μM
Test systems: Caco-2/HBSS solution
Incubation conditions: 0, 90 min at 37° C.
Sample size: Duplicates (n=2)
Bioanalytical method: LC-MS/MS
For Millicell-24 Cell Culture Plates: surface area of the membrane=0.7 cm^2, VA=0.8 mL (A-to-B) or 0.4 mL (B-to-A)
The compound numbers correspond to the compound numbers in Table 1.

[1] = biological target: T1, CXCR4 (Jurkat cells expressing CXCR4) (Homo sapiens, UniProt P61073); assay: Chemokine (CXCL12-AF647) binding inhibition assay; conditions: CXCL12-AF647 25 ng/mL, read-out: IC50 CXCL-12 binding Jurkat
T1 construct: Jurkat cells expressing CXCR4; endogenous in cells; host or cells: Jurkat
Experimental: Chemokine (CXCL12-AF647) Binding Inhibition Assay
Jurkat cells expressing CXCR4 were washed once with assay buffer (Hanks' balanced salt solution with 20 mM HEPES buffer and 0.2% bovine serum albumin, pH 7.4) and then incubated for 15 min at room temperature with the test compounds diluted in assay buffer at dose-dependent concentrations. Subsequently, CXCL12-AF647 (25 ng/mL) was added to the compound-incubated cells. The cells were incubated for 30 min at room temperature. Thereafter, the cells were washed twice in assay buffer, fixed in 1% paraformaldehyde in PBS, and analyzed on the FL4 channel of a FACSCalibur flow cytometer equipped with a 635-nm red diode laser (Becton Dickinson, San Jose, Calif., USA).
The percentages of inhibition of CXCL12-AF647 binding were calculated according to the formula: [1−((MFI−MFINC)/(MFIPC−MFINC))]×100 where MFI is the mean fluorescence intensity of the cells incubated with CXCL12-AF647 in the presence of the inhibitor, MFINC is the mean fluorescence intensity measured in the negative control (i.e., autofluorescence of unlabeled cells), and MFIPC is the mean fluorescence intensity of the positive control (i.e., cells exposed to CXCL12-AF647 alone).

CXCR4 (U87.CXCR4 cells) = biological target: T2, CXCR4 (U87.CXCR4 cells) (Homo sapiens, UniProt P61073); assay: Intracellular CXCL-12-induced calcium mobilization assay (FLIPR); type: cell-based; conditions: CXCL-12 25-50 ng/mL, read-out: IC50 CXCL-12 Ca2+ flux U87.CXCR4+
T2 construct: expressed in transfected cells; host or cells: U87 (U87.CXCR4)
Experimental: Intracellular CXCL-12-Induced Calcium Mobilization Assay
Intracellular calcium mobilization induced by chemokines or chemokine-derived peptides were evaluated using a calcium responsive fluorescent probe and a FLIPR system. The CXCR-4 transfected U87 cell line (U87.CXCR4) cells were seeded in gelatine-coated black-wall 96-well plates at 20,000 cells per well and incubated for 12 hours. Cells were then loaded with the fluorescent calcium probe Fluo-2 acetoxymethyl at 4 μM final concentration in assay buffer (Hanks' balanced salt solution with 20 mM HEPES buffer and 0.2% bovine serum albumin, pH 7.4) for 45 min at 37° C. The intracellular calcium mobilization induced by the CXCL-12 (25-50 ng/mL) was then measured at 37° C. by monitoring the fluorescence as a function of time in all the wells simultaneously using a fluorometric imaging plate reader (FLIPR Tetra, Molecular Devices).

T2 sequence (P61073 whole entry): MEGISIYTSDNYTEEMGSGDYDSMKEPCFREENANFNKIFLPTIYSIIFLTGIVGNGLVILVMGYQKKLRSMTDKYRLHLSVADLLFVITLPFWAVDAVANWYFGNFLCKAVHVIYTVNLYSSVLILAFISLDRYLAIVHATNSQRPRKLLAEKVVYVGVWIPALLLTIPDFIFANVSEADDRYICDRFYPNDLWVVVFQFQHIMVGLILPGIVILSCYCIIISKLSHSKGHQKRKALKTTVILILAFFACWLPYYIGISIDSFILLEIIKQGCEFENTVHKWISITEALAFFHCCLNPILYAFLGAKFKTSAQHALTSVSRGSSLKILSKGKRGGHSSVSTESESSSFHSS
T1 sequence (P61073 whole entry): as above

Row | SMILES | Papp A→B at 90 min, 10 μM (in vitro) | Papp B→A at 90 min, 10 μM (in vitro) | efflux ratio at 90 min, 10 μM (in vitro) | IC50 [1] | IC50 (CXCR4 (U87.CXCR4 cells))
1 | Cc1cccnc1C1CCCCN1Cc1cn2c(N3CCN(C)CC3)cccc2n1 (stereo not shown) [Compound I-1, 5-(4-methylpiperazin-1-yl)-2-((2-(3-methylpyridin-2-yl)piperidin-1-yl)methyl)imidazo[1,2-a]-pyridine] | 0.1 to 10 ×10⁻⁶ cm/s | 10 to 30 ×10⁻⁶ cm/s | 0.1 to 10 | 0.01 to 100 nM | 100 to 1000 nM
2 | Cc1cccnc1C1CCCCN1Cc1ccccc1-n1cccn1 (stereo not shown) [Compound I-2, 2-(1-(2-(1H-pyrazol-1-yl)benzyl)piperidin-2-yl)-3-methylpyridine] | > 30 ×10⁻⁶ cm/s | > 30 ×10⁻⁶ cm/s | 0.1 to 10 | ≥ 1000 nM | ≥ 1000 nM
3 | Cc1cccnc1C1CCCN1Cc1ccccc1-n1cccn1 (stereo not shown) [Compound I-4, 2-(1-(2-(1H-pyrazol-1-yl)benzyl)pyrrolidin-2-yl)-3-methylpyridine] | > 30 ×10⁻⁶ cm/s | 10 to 30 ×10⁻⁶ cm/s | 0.1 to 10 | ≥ 1000 nM | 100 to 1000 nM
4 | Cc1cccnc1C1CCCN1Cc1cn2c(N3CCN(C)CC3)cccc2n1 (stereo not shown) [Compound I-6, 5-(4-methylpiperazin-1-yl)-2-((2-(3-methylpyridin-2-yl)pyrrolidin-1-yl)methyl)imidazo[1,2-a]-pyridine] | 0.1 to 10 ×10⁻⁶ cm/s | 10 to 30 ×10⁻⁶ cm/s | 10 to 30 | 0.01 to 100 nM | 0.01 to 100 nM
5 | Cc1cccnc1C1CCCN1Cc1nc2cccc(N3CCN(C)CC3)n2c1Br (stereo not shown) [Compound I-7, 3-bromo-5-(4-methylpiperazin-1-yl)-2-((2-(3-methylpyridin-2-yl)pyrrolidin-1-yl)methyl)imi-dazo[1,2-a]pyridine] | 0.1 to 10 ×10⁻⁶ cm/s | 10 to 30 ×10⁻⁶ cm/s | 0.1 to 10 | 100 to 1000 nM | 100 to 1000 nM
6 | Cc1cccnc1C1CCCN1Cc1nc2cccc(N3CCN(C)CC3)n2c1CO (stereo not shown) [Compound I-8, (5-(4-methylpiperazin-1-yl)-2-((2-(3-methylpyridin-2-yl)pyrrolidin-1-yl)methyl)imidazo[1,2-a]pyridin-3-yl)methanol] | 0.1 to 10 ×10⁻⁶ cm/s | 10 to 30 ×10⁻⁶ cm/s | > 30 | 0.01 to 100 nM | 100 to 1000 nM
7 | Cc1cccnc1C1CCCN1Cc1nc2c(N3CCN(C)CC3)cccc2[nH]1 (stereo not shown) [Compound I-11] | 0.1 to 10 ×10⁻⁶ cm/s | 10 to 30 ×10⁻⁶ cm/s | 0.1 to 10 | 0.01 to 100 nM | 0.01 to 100 nM
8 | CN1CCN(c2cccc3nc(CN4CCCC4c4nccc5ccccc45)cn23)CC1 (stereo not shown) [Compound I-14] | 0.1 to 10 ×10⁻⁶ cm/s | 10 to 30 ×10⁻⁶ cm/s | 0.1 to 10 | 0.01 to 100 nM | 100 to 1000 nM
9 | CN1CCN(c2cccc3nc(CN4CCCC4c4ncccc4Cl)cn23)CC1 (stereo not shown) [Compound I-27] | 0.1 to 10 ×10⁻⁶ cm/s | 10 to 30 ×10⁻⁶ cm/s | 0.1 to 10 | 0.01 to 100 nM | 100 to 1000 nM
10 | Cc1cccnc1C1CCCN1Cc1nc2cccc(N3CCN(C)C4(CC4)C3)c2[nH]1 (stereo not shown) [Compound I-28] | 0.1 to 10 ×10⁻⁶ cm/s | 10 to 30 ×10⁻⁶ cm/s | 0.1 to 10 | 100 to 1000 nM | 100 to 1000 nM
11 | Cc1cccnc1C1CCCN1Cc1cn2c(N3CCN(C4CC4)CC3)cccc2n1 (stereo not shown) [Compound I-32] | 0.1 to 10 ×10⁻⁶ cm/s | 10 to 30 ×10⁻⁶ cm/s | 0.1 to 10 | 100 to 1000 nM | 100 to 1000 nM
12 | Cc1cccnc1C1CCCN1Cc1nc2cccc(N3CCN(C)CC3)n2c1F (stereo not shown) [Compound I-34] | 0.1 to 10 ×10⁻⁶ cm/s | 10 to 30 ×10⁻⁶ cm/s | 0.1 to 10 | 100 to 1000 nM | 100 to 1000 nM
13 | CN1CCN(c2cccc3nc(CN4CCCC4c4ncccc4Cl)c(F)n23)CC1 (stereo not shown) [Compound I-35] | 0.1 to 10 ×10⁻⁶ cm/s | 10 to 30 ×10⁻⁶ cm/s | 0.1 to 10 | 100 to 1000 nM | ≥ 1000 nM
14 | Cc1cccnc1C1CCCN1Cc1nccn1C1CCN(C)CC1 (stereo not shown) [Compound I-36] | 0.1 to 10 ×10⁻⁶ cm/s | > 30 ×10⁻⁶ cm/s | 0.1 to 10 | 100 to 1000 nM | ≥ 1000 nM
15 | Cc1cccnc1C1CCCN1Cc1nc2cccc(N3CCN(C)CC3)c2s1 (stereo not shown) [Compound I-37] | 10 to 30 ×10⁻⁶ cm/s | 10 to 30 ×10⁻⁶ cm/s | 0.1 to 10 | 100 to 1000 nM | ≥ 1000 nM
16 | Cc1cccnc1C1CCCN1Cc1ccccn1 (stereo not shown) [Compound I-39] | 10 to 30 ×10⁻⁶ cm/s | 10 to 30 ×10⁻⁶ cm/s | 0.1 to 10 | 100 to 1000 nM | ≥ 1000 nM
17 | Cc1cccnc1C1CCCN1Cc1nc2ccccn2c1N1CCN(C)CC1 (stereo not shown) [Compound I-40] | 0.1 to 10 ×10⁻⁶ cm/s | > 30 ×10⁻⁶ cm/s | 10 to 30 | 0.01 to 100 nM | 0.01 to 100 nM
18 | CN1CCN(c2cccc3nc(CN4CCCC4c4ccccn4)[nH]c23)CC1 (stereo not shown) [Compound I-44] | 10 to 30 ×10⁻⁶ cm/s | > 30 ×10⁻⁶ cm/s | 0.1 to 10 | 0.01 to 100 nM | 100 to 1000 nM
19 | Cc1cccnc1C1CCCN1Cc1nc2cccc(N3CCN(C)CC3)n2c1C (stereo not shown) [Compound I-46] | 0.1 to 10 ×10⁻⁶ cm/s | 10 to 30 ×10⁻⁶ cm/s | > 30 | 0.01 to 100 nM | 100 to 1000 nM
20 | Cc1c(CN2CCCC2c2ncccc2Cl)nc2cccc(N3CCN(C)CC3)n12 (stereo not shown) [Compound I-47] | 0.1 to 10 ×10⁻⁶ cm/s | 10 to 30 ×10⁻⁶ cm/s | 0.1 to 10 | 0.01 to 100 nM | 100 to 1000 nM
21 | Cc1cccnc1C1CCCN1Cc1nc2cccc(N3CCN4CCCC4C3)c2[nH]1 (stereo not shown) [Compound I-48] | 0.1 to 10 ×10⁻⁶ cm/s | 10 to 30 ×10⁻⁶ cm/s | 0.1 to 10 | 0.01 to 100 nM | 0.01 to 100 nM
22 | CN1CCN(c2cccc3nc(CN4CCCC4c4nccs4)[nH]c23)CC1 (stereo not shown) [Compound I-49] | 10 to 30 ×10⁻⁶ cm/s | 10 to 30 ×10⁻⁶ cm/s | 0.1 to 10 | ≥ 1000 nM | ≥ 1000 nM
23 | CN1CCN(c2cccc3nc(CN4CCCC4c4ncc[nH]4)cn23)CC1 (stereo not shown) [Compound I-50] | 0.1 to 10 ×10⁻⁶ cm/s | 10 to 30 ×10⁻⁶ cm/s | 0.1 to 10 | ≥ 1000 nM | ≥ 1000 nM
